Measured values taken from patent US20050148069A1, “IGF-1 instructs multipotent adult CNS neural stem cells to an oligodendroglial lineage” (priority 2003, published 2005).

System: adult hippocampus-derived neural progenitor cells
Assay: in vitro differentiation analysis of neural progenitor cells (immunocytochemistry for lineage markers)
Format: cell-based, rat
Settings: for differentiation of neural progenitor cells into oligodendrocytes: 500 ng/ml; for differentiation of neural progenitor cells into oligodendrocytes / GFAP+ astrocytes: 4 days; for rank order of potency for oligodendrocyte differentiation: different concentrations (20-1000 ng/ml); for GFAP+ astrocytes: each at 500 ng/ml
Experimental: The neural progenitor cells isolated from the hippocampus of female Fischer 344 used in this study have been characterized previously (Gage et al., 1995; Palmer et al., 1997). The whole brain-derived neural stem cells from PIO ICR mice were isolated and cultured according to the methods as described, with slight modifications. Cells were cultured as previously described (Gage et al., 1995; Ray et al., 1993). Cells between passages 10 and 20 were used for in vitro differentiation analyses. To induce differentiation, cells were plated into 4-well chamber slides at a density of 55,000-75,000 cells per well and were allowed to proliferate in N2-supplemented (Invitrogen) DMEM:F12 (Omega Scientific) medium containing 20 ng/ml FGF-2 (PeproTech, Inc.) for 24 hours. FGF-2 was then withdrawn and cells were subsequently treated with differentiation media. […] For IGF-induction experiments, cells were trypsinized, washed with 1× PBS, and plated into insulin-free N2 medium. […] In some cultures, BrdU (2.5 μM, Sigma) was added to label dividing cells, and Q-VD-OPh (2 μM, Enzyme Systems Products) was added to prevent apoptosis.
Cells were fixed with 4% paraformaldehyde, followed by immunocytochemical staining as described (Palmer et al., 1999). Labeled cells were visualized using a Nikon E800 upright microscope or a Nikon E600 inverted microscope (Nikon Inc.) and a Spot RT CCD camera (Diagnostic Instruments Inc.). 4′,6-diamidino-2-phenylindole (DAPI) was used to identify individual cells. Quantification of cell phenotypes was with StereoInvestigator (MicroBrightfield Inc.); for each marker, 500-1000 cells were sampled systematically from standardized fields at 40×magnification. For quantification of live/dead cells, images were taken of cultures live-stained with propidum iodide (1 μg/ml; Molecular Probes) and Hoescht 33342 (1 μg/ml; Sigma) at 10×magnification, and cells were counted using Image-Pro (Media Cybernetics). The following primary antibodies were used: rabbit anti-Tuj1 (1:7500;Covance), mouse anti-RIP (1:25-1:75; Hybridoma Bank); guinea pig anti-GFAP (1:500-1:2500; Advanced Immunochemical, Inc.); rabbit anti-MBP (1:500; Chemicon International Inc.), rat anti-BrdU (1:400; Accurate). Secondary antibodies were all from Jackson ImmunoResearch and used at 1:250 dilution. The detection of BrdU in cultured cells required treatment in 2 N HCL at 37° C. for 30 min (Palmer et al., 1999). All experiments were independently replicated at least 3 times.

Row | Molecule | effects on proliferation or differentiation (2 μM Q-VD-OPh, 2-day cultures) | cell survival (DAPI-stained nuclei, persistence of cells) (2 μM Q-VD-OPh, 2-day cultures, insulin-free N2 medium) | RIP+ differentiation (2 μM Q-VD-OPh, no IGF-I, 2-day cultures, insulin-free N2 medium) | differentiation of neural progenitor cells into oligodendrocytes | rank order of potency for oligodendrocyte differentiation | GFAP+ astrocytes
1 | CC(C)[C@H](NC(=O)c1ccc2ccccc2n1)C(=O)N[C@@H](CC(=O)O)C(=O)COc1c(F)cccc1F [Q-VD-OPh, reference compound] | without obvious effects on proliferation or differentiation | promoted the majority of the cells to survive | approximately 2% | – | – | –
2 | IGF-II: human recombinant IGF-II (R&D Systems) | – | – | – | could also promote the preferential differentiation of neural progenitor cells into oligodendrocytes | IGF-I>IGF-II>insulin | few to no GFAP+ astrocytes
3 | insulin: insulin (Sigma) | – | – | – | could also promote the preferential differentiation of neural progenitor cells into oligodendrocytes | IGF-I>IGF-II>insulin | few to no GFAP+ astrocytes
